*1 amine or outer side, *2 acyl side, *3 side chain or, on linkers, in order; H or OH if unused. Where a SMILES comes first, the peptide text is derived from it. Where no end group is shown, it is not given here. [ ]: non-standard residue; d: D form. The star is where a group is joined. X2 = O=C([C@@H]1CC(O)CN1[*:1])[*:2]; Ac6c = NC1(C(=O)O)CCCCC1; Nle = CCCC[C@H](N)C(=O)O; X1 = CCCN1C(=O)CC(*)C1=O; Ac5c = NC1(C(=O)O)CCCC1; Aib = CC(C)(N)C(=O)O Some results are limits rather than exact numbers.

This is an account of results in patent publication US9074014B2 (Ipsen Pharma S.A.S., priority 2008, dated 2015).

A short description of series [1]: Human plasma half-life assay. The class given is in vitro ADME. Conditions: human plasma, 37° C., LC-MS; for half-life at 0.1 mg/ml: read-out: Human Plasma T½ (converted).
Series [2] can be described thus: Rat plasma half-life assay. It counts as in vitro ADME. Conditions: rat plasma, 37° C., LC-MS; for half-life at 0.1 mg/ml: read-out: Rat Plasma T½ (converted).

As for `CC[C@H](C)[C@H](NC(=O)[C@H](CO)NC(=O)[C@H](Cc1ccc(O)cc1)NC(=O)[C@H](CC(=O)O)NC(=O)[C@H](CO)NC(=O)C1(NC(=O)[C@H](Cc2ccccc2)NC(=O)[C@@H](NC(=O)CNC(=O)[C@H](CCC(=O)O)NC(=O)C(C)(C)NC(=O)[C@@H](N)Cc2ccc(O)cc2)[C@@H](C)O)CCCC1)C(=O)N[C@@H](C)C(=O)N[C@@H](CCSC)C(=O)N[C@@H](CC(=O)O)C(=O)N[C@@H](CCCCN)C(=O)N[C@H](C(=O)N[C@@H](Cc1c[nH]cn1)C(=O)N[C@@H](CCC(N)=O)C(=O)N[C@@H](CCC(N)=O)C(=O)N[C@@H](CC(=O)O)C(=O)N[C@@H](Cc1ccccc1)C(=O)N[C@H](C(=O)N[C@@H](CC(N)=O)C(=O)N[C@@H](Cc1c[nH]c2ccccc12)C(=O)N[C@@H](CC(C)C)C(=O)N[C@@H](CC(C)C)C(=O)N[C@@H](C)C(=O)N[C@@H](CCC(N)=O)C(=O)N[C@@H](CCCCN)C(N)=O)C(C)C)[C@@H](C)CC` [Example 12, (Aib^2, A5c^7)hGIP(1-30)-NH2], the half-life at 0.1 mg/ml in series [1] was 20.5 h; in series [2], greater than 48 h.

Regarding “YGEGTFISDY[Ac5c]IAMDKIHQQDFVNWLLAQKGKKNDWKHNITQH-OH [Example 117, (Gly^2, A5c^11, His^43)hGIP(1-43)-OH]”, the values for the half-life at 0.1 mg/ml in series [1] and in series [2] were 25.2 h and 10.5 h, respectively.

For `CC[C@H](C)[C@H](NC(=O)[C@H](CO)NC(=O)[C@H](Cc1ccc(O)cc1)NC(=O)C(C)(C)NC(=O)[C@H](CO)NC(=O)[C@@H](NC(=O)[C@H](Cc1ccccc1)NC(=O)[C@@H](NC(=O)CNC(=O)[C@H](CCC(=O)O)NC(=O)C(C)(C)NC(=O)[C@@H](N)Cc1ccc(O)cc1)[C@@H](C)O)[C@@H](C)CC)C(=O)N[C@@H](C)C(=O)N[C@@H](CCSC)C(=O)N[C@@H](CC(=O)O)C(=O)N[C@@H](CCCCN)C(=O)N[C@H](C(=O)N[C@@H](Cc1c[nH]cn1)C(=O)N[C@@H](CCC(N)=O)C(=O)N[C@@H](CCC(N)=O)C(=O)N[C@@H](CC(=O)O)C(=O)N[C@@H](Cc1ccccc1)C(=O)N[C@H](C(=O)N[C@@H](CC(N)=O)C(=O)N[C@@H](Cc1c[nH]c2ccccc12)C(=O)N[C@@H](CC(C)C)C(=O)N[C@@H](CC(C)C)C(=O)N[C@@H](C)C(=O)N[C@@H](CCC(N)=O)C(=O)N[C@@H](CCCCN)C(N)=O)C(C)C)[C@@H](C)CC` [Example 18, (Aib^2, 9)hGIP(1-30)-NH2] (H-Y[Aib]EGTFIS[Aib]YSIAMDKIHQQDFVNWLLAQK-NH2; N-terminus assumed), the results for the half-life at 0.1 mg/ml in series [1] and in series [2] were 11.3 h and 44.4 h, respectively.

“Y[Aib]E[Aib]TFISDYSIAMDKIHQQDFVNWLLAQKGKKNDWKHNITQ-OH [Example 10, (Aib^2, 4)hGIP(1-42)-OH]”: the half-life at 0.1 mg/ml is greater than 48 h in series [1] and 4 h in series [2].

Take “Y[dA]EGTFISDY[Ac5c]IAMDKIHQQDFVNWLLAQKGKKNDWKHN[Ac5c]TQ-OH [Example 104, (D-Ala^2, A5c^11,40)hGIP(1-42)-OH]”: the half-life at 0.1 mg/ml in series [1] is 20.2 h; in series [2] it was 14.8 h.

Regarding `CCCC[C@H](NC(=O)[C@H](C)NC(=O)[C@@H](NC(=O)C1(NC(=O)[C@H](Cc2ccc(O)cc2)NC(=O)[C@H](CC(=O)O)NC(=O)[C@H](CO)NC(=O)[C@@H](NC(=O)[C@H](Cc2ccccc2)NC(=O)[C@@H](NC(=O)CNC(=O)[C@H](CCC(=O)O)NC(=O)C(C)(C)NC(=O)[C@@H](N)Cc2ccc(O)cc2)[C@@H](C)O)[C@@H](C)CC)CCCC1)[C@@H](C)CC)C(=O)N[C@@H](CC(=O)O)C(=O)N[C@@H](CCCCN)C(=O)N[C@H](C(=O)N[C@@H](Cc1c[nH]cn1)C(=O)N[C@@H](CCC(N)=O)C(=O)N[C@@H](CCC(N)=O)C(=O)N[C@@H](CC(=O)O)C(=O)N[C@@H](Cc1ccccc1)C(=O)N[C@H](C(=O)N[C@@H](CC(N)=O)C(=O)N[C@@H](Cc1c[nH]c2ccccc12)C(=O)N[C@@H](CC(C)C)C(=O)N[C@@H](CC(C)C)C(=O)N[C@@H](C)C(=O)N[C@@H](CCC(N)=O)C(=O)N[C@@H](CCCCN)C(N)=O)C(C)C)[C@@H](C)CC` [Example 50, (Aib^2, A5c^11, Nle^14)hGIP(1-30)-NH2] (H-Y[Aib]EGTFISDY[Ac5c]IA[Nle]DKIHQQDFVNWLLAQK-NH2; N-terminus assumed), in series [1], the “Human Plasma T½” value was found to be 48.1 h. Besides, the “Rat Plasma T½” value in series [2] is greater than 54 h.

On to “YA[X2]GTFISDYSI[Aib]MDKIHQQDFVNWLLAQKGKKNDWKHNITQ [Example 67, (4Hyp^3, Aib^13)hGIP(1-42)-OH]”, for which the half-life at 0.1 mg/ml in series [1] was greater than 33 h; in series [2], 1.6 h.

As for “Y[Aib]EGTFISDYS[Aib]AMDKIHQQDFVNWLLAQKGKKNDWKHNITQ-OH [Example 8, (Aib^2, 12)hGIP(1-42)-OH]”, the results for the half-life at 0.1 mg/ml in series [1] and in series [2] were greater than 48 h and 4.5 h, respectively.

As to “Y[Aib]EGTF[Ac6c]SDYSIAMDKIHQQDFVNWLLAQKGKKNDC(X1)KHNITQ-OH [Example 81, [Aib^2, A6c^7, Cys(Psu)^36]hGIP(1-42)-OH]”, the half-life at 0.1 mg/ml is 8.2 h in series [1] and 6.1 h in series [2].

For the compound `CC[C@H](C)[C@H](NC(=O)[C@H](CCCCN)NC(=O)[C@H](CC(=O)O)NC(=O)[C@H](CCSC)NC(=O)C(C)(C)NC(=O)[C@@H](NC(=O)[C@H](CO)NC(=O)[C@H](Cc1ccc(O)cc1)NC(=O)[C@H](CC(=O)O)NC(=O)[C@H](CO)NC(=O)[C@@H](NC(=O)[C@H](Cc1ccccc1)NC(=O)[C@@H](NC(=O)CNC(=O)[C@H](CCC(=O)O)NC(=O)C(C)(C)NC(=O)[C@@H](N)Cc1ccc(O)cc1)[C@@H](C)O)[C@@H](C)CC)[C@@H](C)CC)C(=O)N[C@@H](Cc1c[nH]cn1)C(=O)N[C@@H](CCC(N)=O)C(=O)N[C@@H](CCC(N)=O)C(=O)N[C@@H](CC(=O)O)C(=O)N[C@@H](Cc1ccccc1)C(=O)N[C@H](C(=O)N[C@@H](CC(N)=O)C(=O)N[C@@H](Cc1c[nH]c2ccccc12)C(=O)N[C@@H](CC(C)C)C(=O)N[C@@H](CC(C)C)C(=O)N[C@@H](C)C(=O)N[C@@H](CCC(N)=O)C(=O)N[C@@H](CCCCN)C(N)=O)C(C)C` [Example 47, (Aib^2, 13)hGIP(1-30)-NH2] (H-Y[Aib]EGTFISDYSI[Aib]MDKIHQQDFVNWLLAQK-NH2; N-terminus assumed), the half-life at 0.1 mg/ml in series [1] was 45.3 h; in series [2] it was 30.8 h.

In the case of “YAPGTFISDYSI[Aib]MDKIHQQDFVNWLLAQKGKKNDWKHNITQ [Example 75, (Pro^3, Aib^13)hGIP(1-42)-OH]”, the half-life at 0.1 mg/ml in series [1] is 26.1 h; in series [2], 1.9 h.

For “Y[Aib]EGTF[Ac6c]SDYSIAMDKIHQQDFVNWLLAQKGKKC(X1)DWKHNITQ-OH [Example 86, [Aib^2, A6c^7, Cys(Psu)^34]hGIP(1-42)-OH]”, the half-life at 0.1 mg/ml in series [1] is 4.2 h; in series [2], 7 h.

As to `CCCC[C@H](NC(=O)C(C)(C)NC(=O)[C@@H](NC(=O)[C@H](CO)NC(=O)[C@H](Cc1ccc(O)cc1)NC(=O)[C@H](CC(=O)O)NC(=O)[C@H](CO)NC(=O)[C@@H](NC(=O)[C@H](Cc1ccccc1)NC(=O)[C@@H](NC(=O)CNC(=O)[C@H](CCC(=O)O)NC(=O)C(C)(C)NC(=O)[C@@H](N)Cc1ccc(O)cc1)[C@@H](C)O)[C@@H](C)CC)[C@@H](C)CC)C(=O)N[C@@H](CC(=O)O)C(=O)N[C@@H](CCCCN)C(=O)N[C@H](C(=O)N[C@@H](Cc1c[nH]cn1)C(=O)N[C@@H](CCC(N)=O)C(=O)N[C@@H](CCC(N)=O)C(=O)N[C@@H](CC(=O)O)C(=O)N[C@@H](Cc1ccccc1)C(=O)N[C@H](C(=O)N[C@@H](CC(N)=O)C(=O)N[C@@H](Cc1c[nH]c2ccccc12)C(=O)N[C@@H](CC(C)C)C(=O)N[C@@H](CC(C)C)C(=O)N[C@@H](C)C(=O)N[C@@H](CCC(N)=O)C(=O)N[C@@H](CCCCN)C(N)=O)C(C)C)[C@@H](C)CC` [Example 49, (Aib^2, 13, Nle^14)hGIP(1-30)-NH2] (H-Y[Aib]EGTFISDYSI[Aib][Nle]DKIHQQDFVNWLLAQK-NH2; N-terminus assumed), in series [1], the “Human Plasma T½” value was greater than 56 h. Besides, the “Rat Plasma T½” value in series [2] stood at 45.0 h.

As to “Y[Aib]EG[Aib]FISDYSIAMDKIHQQDFVNWLLAQKGKKNDWKHNITQ-OH [Example 4, (Aib^2, 5)hGIP(1-42)-OH]”, the half-life at 0.1 mg/ml in series [1] is greater than 48 h; in series [2], 4.8 h.

In the case of “Y[Aib]EGTFISDY[Ac5c]IA[Nle]DKIHQQDFVNWLLAQKGKKNDWKHNITQ-OH [Example 54, (Aib^2, A5c^11, Nle^14)hGIP(1-42)-OH]”, the half-life at 0.1 mg/ml in series [1] was greater than 56 h; in series [2], 44.1 h.

Consider “Y[Aib]EGTF[Ac6c]SDYSIAMDKIHQQDFVNWLLAQKGKKNDWKHNC(X1)TQ-OH [Example 78, [Aib^2, A6c^7, Cys(Psu)^40]hGIP(1-42)-OH]”, for which the half-life at 0.1 mg/ml in series [1] is 10.1 h; in series [2] it was 11.2 h.

Regarding `CCCC[C@H](NC(=O)[C@H](C)NC(=O)[C@@H](NC(=O)[C@H](CO)NC(=O)[C@H](Cc1ccc(O)cc1)NC(=O)[C@H](CC(=O)O)NC(=O)[C@H](CO)NC(=O)C1(NC(=O)[C@H](Cc2ccccc2)NC(=O)[C@@H](NC(=O)CNC(=O)[C@H](CCC(=O)O)NC(=O)C2(NC(=O)[C@@H](N)Cc3ccc(O)cc3)CCCC2)[C@@H](C)O)CCCC1)[C@@H](C)CC)C(=O)N[C@@H](CC(=O)O)C(=O)N[C@@H](CCCCN)C(=O)N[C@H](C(=O)N[C@@H](Cc1c[nH]cn1)C(=O)N[C@@H](CCC(N)=O)C(=O)N[C@@H](CCC(N)=O)C(=O)N[C@@H](CC(=O)O)C(=O)N[C@@H](Cc1ccccc1)C(=O)N[C@H](C(=O)N[C@@H](CC(N)=O)C(=O)N[C@@H](Cc1c[nH]c2ccccc12)C(=O)N[C@@H](CC(C)C)C(=O)N[C@@H](CC(C)C)C(=O)N[C@@H](C)C(=O)N[C@@H](CCC(N)=O)C(=O)N[C@@H](CCCCN)C(N)=O)C(C)C)[C@@H](C)CC` [Example 34, (A5c^2,7, Nle^14)hGIP(1-30)-NH2] (H-Y[Ac5c]EGTF[Ac5c]SDYSIA[Nle]DKIHQQDFVNWLLAQK-NH2; N-terminus assumed), the half-life at 0.1 mg/ml in series [1] was greater than 48 h; in series [2] it was 23 h.
